Measurements taken from patent US9796719B2, “Compounds and pharmaceutical compositions thereof for the treatment of inflammatory disorders” (GALAPAGOS NV, priority 2013, dated 2017).

How the values were obtained:
hENPP2 [1] = biological target: T1, hENPP2 (UniProtKB/SwissProt Sequence ref Q13822) (Homo sapiens (Human), UniProt Q13822); assay: LPC hENPP2 assay (choline release, LPC as substrate); assay type: biochemical
How it was run: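 Choline released from LPC by ENPP2 is quantified after stopping with stop-developer containing 0.6 U/mL choline oxidase, 0.6 U/mL peroxidase, 1.8 mM TOOS, 1.2 mM amino-antipyrine and 20 mM EGTA. Quinoneimine dye read at 555 nm after 30 min at room temperature.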

LPA 18:2 [2] = assay: Rat whole blood (plasma) LPA assay; assay type: biochemical
Description: (§1) Whole blood is collected from rats or mouse by exsanguinations on sodium heparin tube, then after centrifugation at 3000 rpm for 15 min at 4° C., plasma is stored at −80° C. Compounds are diluted in DMSO in concentration dependent manner then 0.5 μL are dispensed into 96-wells plate placed in ice. Plasma is defrosted on ice then 49.5 μL of plasma are added into the well containing 0.5 μL of compound (1% DMSO final). Plates are covered with a lid in polypropylene and incubated at +37° C., 5% CO2, for 2 h under gentle shaking (except controls which are stored at −20° C.).
(§2) At the end of the incubation, controls are defrosted in ice and transferred in the incubated plates for LC-MS/MS analysis with a non GLP-validated method. For the analysis, plasma proteins from a 10 μL incubated plates are precipitated with an excess of methanol containing the internal standard, LPA 17:0. After centrifugation, the corresponding supernatant is injected on a C18 column. Analytes are eluted out of the column under isocratic conditions. An API5500 QTRAP mass spectrometer (ABSciex™) is used for the detection of LPA 18:2. No calibration curve is prepared for LPA 18:2, however relative quantities are evaluated based on the peak area.

[3] = tested on: cells recovered in the BALF; assay: Tobacco smoke (TS) model, lungs inflammatory cells recruitment; assay type: in vivo, mouse; settings: TS-exposed mice
Description: The aim of this experiment is to evaluate the efficacy and potency of a test compound administered p.o., once or twice daily on days 6 to 11, vs reference compounds, on pulmonary inflammation induced by 11 days of TS-exposure in female C57BL/6J mice, by assessing the effect of a test compound on the tobacco smoke induced recruitment of inflammatory cells to the lungs.
The test compounds are formulated in PEG200/0.5% methylcellulose (25/75, v/v) and are given at a dose volume of 10 mL/kg. Roflumilast and Dexamethasone are included as positive […] control, respectively. Each treatment group consists of 10 mice.
A first group of mice is subjected to daily TS-exposure for 5 consecutive days and sacrificed on the day 6, 24 h after the final TS-exposure.
A second group is exposed to air for 5 consecutive days (sham exposure) and sacrificed on the day 6, 24 h after the final air-exposure.
Compound and reference-treated groups are subjected to daily TS-exposure for 11 consecutive days and sacrificed on the day 12, 24 h after the final TS-exposure. Mice are dosed p.o. on days 6 to 11, twice daily, 1 h prior to and 6 h after each TS-exposure, with either vehicle, or the test compound at 3, 5, 10 or 30 mg/kg. Another group is dosed p.o. on days 6 to 11, once daily, 1 h prior to each TS-exposure, with either vehicle, or the test compound at a selected dose, for example 10 mg/kg.
An additional group is dosed p.o., once daily, on days 6 to 11, with roflumilast at 5 mg/kg, 1 h prior to each TS-exposure. Dexamethasone is dosed p.o., twice daily, on days 6 to 11, at 0.3 mg/kg, 1 h prior to and 6 h after each TS-exposure.
For each mouse, a BAL is performed using 0.4 mL of PBS. […]
The lungs are dissected out and the left lobes are removed, snap-frozen and stored at −80° C. […] Cell data are presented as individual data points for each animal and the mean value calculated for each group. […]
Percentage inhibitions for the cell data are calculated using the formula below: […]

hENPP2 [4] = biological target: T1, hENPP2; assay: FS3 hENPP2 assay (fluorogenic substrate FS-3); assay type: biochemical; settings: hENPP2, FS-3 as substrate
How it was run: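 Compound dilutions (1/5 steps, top concentration as added 20 μM) were preincubated 30 min at room temperature with hENPP2 (0.4 or 0.64 μg/mL final) in pH 8.0 Tris buffer containing NaCl, KCl, MgCl2, CaCl2 and 0.1% fatty-acid-free BSA. FS-3 (0.75 μM as added) was then hydrolysed for 30 min at 30 °C, and fluorescence was read at 485/520 nm.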

LPA 18:2 [5] = assay: Mouse whole blood (plasma) LPA assay; assay type: biochemical
Description: as §1, §2

SMILES	IC50 (hENPP2 [1])	IC50 (LPA 18:2 [2])	number of cells recovered in the BALF (macrophage cells, epithelial cells, neutrophils) ([3]; 3 mg/kg twice daily p.o.)	number of cells recovered in the BALF (macrophage cells, epithelial cells, neutrophils) ([3]; 10 mg/kg twice daily p.o.)	IC50 (hENPP2 [4])	IC50 (LPA 18:2 [5])
CCc1nc2cnc(N3CCN(CC(=O)N4CC(O)C4)CC3)cn2c1N(C)c1nc(-c2ccc(F)cc2)c(C#N)s1 [Cpd 2, 2-((2-ethyl-6-(4-(2-(3-hydroxyazetidin-1-yl)-2-oxoethyl)piperazin-1-yl)imidazo[1,2-a]pyrazin-3-yl)(methyl)amino)-4-(4-fluorophenyl) thiazole-5-carbonitrile]	100 to 500 nM	> 1000 nM	significantly inhibited	significantly inhibited		
CCc1nc2cnc(N3CCN(C(=O)CN4CC(O)C4)CC3)cn2c1N(C)c1nc(-c2ccc(F)cc2)c(C#N)s1 [Cpd 12, 2-((2-ethyl-6-(4-(2-(3-hydroxyazetidin-1-yl)acetoyl)piperazin-1-yl)imidazo[1,2-a]pyrazin-3-yl)(methyl)amino)-4-(4-fluorophenyl) thiazole-5-carbonitrile]	> 1000 nM	> 1000 nM		significantly inhibited	0.01 to 25 nM	
CCc1nc2cnc(C3=CCN(CC(=O)N4CC(O)C4)CC3)cn2c1N(C)c1nc(-c2ccc(F)cc2)c(C#N)s1 [Cpd 21, 2-((2-ethyl-6-(1-(2-(3-hydroxyazetidin-1-yl)-2-oxoethyl)-1,2,3,6-tetrahydropyridin-4-yl)imidazo[1,2-a]pyrazin-3-yl)(methyl)amino)-4-(4-fluorophenyl) thiazole-5-carbonitrile]	100 to 500 nM				0.01 to 25 nM	> 1000 nM
